Drawing on BindingDB's records for doi:10.7270/Q2TX3CTT (Broad Institute, 2010), this text covers EC50 for 65 compounds.

Structures can show the parent of a compound that is named as a salt. Where only a bound is given, the exact number is not on record here.

The target of this test is Glycogen synthase kinase-3 beta (Homo sapiens, UniProt P49841). The test is described as follows: GSK3beta kinase inhibitor potency, dose response, biochemical, luminescence, cell-free homogeneous, retest (AID 434954).
Sequence of Glycogen synthase kinase-3 beta (P49841 whole entry): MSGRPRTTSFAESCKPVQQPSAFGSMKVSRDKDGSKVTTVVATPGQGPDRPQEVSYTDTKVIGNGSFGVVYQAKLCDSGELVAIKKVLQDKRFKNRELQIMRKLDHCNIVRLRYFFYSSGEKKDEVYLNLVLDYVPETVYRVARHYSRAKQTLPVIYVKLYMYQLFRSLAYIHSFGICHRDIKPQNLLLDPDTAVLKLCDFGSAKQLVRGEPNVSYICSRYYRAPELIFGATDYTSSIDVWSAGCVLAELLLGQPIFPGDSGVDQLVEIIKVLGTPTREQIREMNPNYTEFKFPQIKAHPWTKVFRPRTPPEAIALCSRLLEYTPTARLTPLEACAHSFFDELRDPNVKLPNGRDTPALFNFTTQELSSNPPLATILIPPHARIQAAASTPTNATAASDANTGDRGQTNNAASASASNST
As to `O=c1c2ccccc2cnn1-c1nc2ccccc2[nH]1` [MLS001017304], it took 25.1 µM to reach a half-maximal effect (EC50).
Compound `COc1ccccc1-c1coc2c(CN(C)C)c(O)ccc2c1=O` [8-[(dimethylamino)methyl]-7-hydroxy-3-(2-methoxyphenyl)chromen-4-one] registered an EC50 greater than 300 µM.
As for `COc1ccc(Cl)cc1-c1nc(N)nc(N(C)C)n1` [MLS000698391], the EC50 was greater than 300 µM.
Under `CC(=O)Nc1cccc2c1C(=O)NC2=O` [N-(1,3-dioxoisoindol-4-yl)acetamide] stands 31.7 µM; under `CCn1c(SCC(=O)Nc2ccccc2Cl)nnc1C1CC1` [N-(2-chlorophenyl)-2-[(5-cyclopropyl-4-ethyl-1,2,4-triazol-3-yl)sulfanyl]ethanamide], greater than 300 µM.
Next, `CCCSCCCNC(=O)Cn1nc(CC)n2c(cc3c(OC)cccc32)c1=O`: greater than 300 µM; `COc1ccc(C2CC(=O)C3C(=Nc4ncnn4C3c3ccccc3C)C2)cc1` (stereo not given): greater than 300 µM.
`CCc1nn(CC(=O)NCCN2CCOCC2)c(=O)c2cc3c(OC)cccc3n12` [2-(4-ethyl-9-methoxy-1-oxidanylidene-[1,2,4]triazino[4,5-a]indol-2-yl)-N-(2-morpholin-4-ylethyl)ethanamide] came in with an EC50 greater than 300 µM.
Next, `CCOC(=O)CSc1ccc2nnc(-c3cccs3)n2n1` [ethyl 2-[(3-thiophen-2-yl-[1,2,4]triazolo[4,3-b]pyridazin-6-yl)sulfanyl]ethanoate]: 4.1 µM; `COC(=O)c1nnn(-c2nonc2N)c1-c1cccs1` [1-(4-amino-1,2,5-oxadiazol-3-yl)-5-thiophen-2-yl-4-triazolecarboxylic acid methyl ester]: 26.2 µM; `Cc1ccnc(NC(=O)Cn2cc([N+](=O)[O-])cn2)c1` [SMR000307337]: greater than 300 µM.
Compound `Nc1ncnc(N(c2ccccc2)C2CCCCC2)c1[N+](=O)[O-]` [N-cyclohexyl-5-nitro-N-phenyl-4,6-pyrimidinediamine] yielded an EC50 greater than 300 µM.
For `N#Cc1c(N)nc(-c2ccccc2)nc1-c1ccccc1` [4-amino-2,6-diphenyl-5-pyrimidinecarbonitrile], the EC50 is greater than 300 µM.
Under `CCCn1nc(NC(=O)C2CCCO2)c2cc3ccc(C)cc3nc21` (stereo not given) [N-(7-methyl-1-propyl-pyrazolo[3,4-b]quinolin-3-yl)oxolane-2-carboxamide] stands greater than 300 µM; under `CCOc1ccc(CN=Nc2ccccn2)cc1OC` [MLS001005584], greater than 300 µM; under `O=C(O)c1ccc(N=NCc2ccc(-c3cccc(Cl)c3)o2)cc1` [SMR000415894], greater than 300 µM.
As for `COc1ccc(OC)c(Nc2nc(N)c([N+](=O)[O-])c(NC3CCCCC3)n2)c1` [N4-cyclohexyl-N2-(2,5-dimethoxyphenyl)-5-nitropyrimidine-2,4,6-triamine], the EC50 was greater than 300 µM.
Turning to `CC(C)(C)NC(=O)NC(=O)CSc1nncs1` [N-[(tert-butylamino)-oxomethyl]-2-(1,3,4-thiadiazol-2-ylthio)acetamide], the EC50 was greater than 300 µM.
Next, `Cc1cccc(OCc2nnc(SCC(=O)Nc3sc(C)c(C)c3C#N)n2C)c1` [N-(3-cyano-4,5-dimethylthiophen-2-yl)-2-[[4-methyl-5-[(3-methylphenoxy)methyl]-1,2,4-triazol-3-yl]sulfanyl]acetamide]: greater than 300 µM.
Under `N#CCCn1cc(CN=O)c(-c2cccc([N+](=O)[O-])c2)n1` [3-[4-(hydroxyiminomethyl)-3-(3-nitrophenyl)pyrazol-1-yl]propanenitrile] stands 50.1 µM.
Next, `Nc1nc(NCc2ccco2)nc(NC2CCCCC2)c1[N+](=O)[O-]` [MLS000769818]: greater than 300 µM; `O=C(Nc1ccc(O)c2c(=O)cc(-c3ccccc3Cl)oc12)c1ccc(Cl)cc1Cl`: 9.16 µM.
The compound `CCC(C)Oc1cc(-c2ccnc(Nc3cccc(Cl)c3)n2)ccn1` (stereo not given) [SMR000463563] registered an EC50 of 5.38 µM.
Under `O=c1c(O)c(-c2ccc(O)cc2)oc2cc(O)cc(O)c12` stands 11.6 µM.
For the compound `Cc1cccc(-n2c(=O)c3c4c(sc3n3c(=S)[nH]nc23)CCC4)c1` [1-mercapto-4-(3-methylphenyl)-7,8-dihydro-6H-cyclopenta[4,5]thieno[3,2-e][1,2,4]triazolo[4,3-a]pyrimidin-5(4H)-one], the EC50 is 48.9 µM.
Next, `Cc1sc2ncnc(N3CCCCC3C)c2c1C` (stereo not given): greater than 300 µM.
Under `COc1ccc(-c2nn(-c3ccccc3)cc2CN=Nc2ccc3ccccc3n2)cc1OC` [MLS000388895] stands greater than 300 µM.
Under `O=[N+]([O-])c1cc(Cl)ccc1N1CCCC1` [SMR000284754] stands greater than 300 µM; under `O=C1N=C(NS(=O)(=O)Cc2ccccc2)S/C1=C/c1ccc2c(c1)OCO2` [N-[5-[1-Benzo[1,3]dioxol-5-yl-meth-(E)-ylidene]-4-oxo-thiazolidin-(2E)-ylidene]-C-phenyl-methanesulfon amide], 18.8 µM; under `CC1(C)N=C(N)N=C(N)N1c1ccc(Oc2ccc(Cl)cc2)c(Cl)c1` [1-[3-chloro-4-(4-chlorophenoxy)phenyl]-6,6-dimethyl-1,3,5-triazine-2,4-diamine;hydrochloride], greater than 300 µM.
Turning to `Cc1ccc(C(=O)Nc2ncc([N+](=O)[O-])s2)cc1`, the EC50 is greater than 300 µM.
Next, `CC1=C(C#N)C(=O)NC(=O)C1=NNc1ccc(Br)cc1C(=O)O` [MLS001213177]: greater than 300 µM; `Cc1ccc(Nc2nc(N)c([N+](=O)[O-])c(NCCO)n2)cc1` [MLS000333433]: 79.7 µM.
Under `CCOc1ccccc1NC(=O)c1nnn(-c2ccc3c(c2)OCCO3)c1N` [MLS001221013] stands greater than 300 µM; under `CN(Cc1c(C(=O)NN=Cc2cccc(O)c2)nnn1-c1nonc1N)C1CCCCC1` [MLS001142859], 0.712 µM.
Under `COc1ccc2c(c1)-c1c(sn(-c3ccccc3)c1=S)C(C)(C)N2` stands greater than 300 µM; under `COc1ccc2occ(C(C)=O)c2c1` [1-(5-methoxy-3-benzofuranyl)ethanone], greater than 300 µM.
`CCC(N=C(S)NC1CCCCC1)c1ccccc1` (stereo not given) [SMR000678367] yielded an EC50 greater than 300 µM.
Under `C=CCN1C(=O)NC(=O)/C(=C/c2ccc(OCC(=O)Nc3ccc(C)cc3)cc2)C1=O` [SMR000673044] stands greater than 300 µM.
Under `NC(=O)c1c(NC(=O)CN2CCCC2)sc2c1CCCC2` [2-(2-Pyrrolidin-1-yl-acetylamino)-4,5,6,7-tetrahydro-benzo[b]thiophene-3-carboxylic acid amide] stands greater than 300 µM; under `CN1CCc2c(sc3c2c(=O)n(-c2ccc(Cl)cc2)c2nncn32)C1` [SMR000042939], greater than 300 µM.
Next, `N#Cc1c(-c2ccccc2)nc(-c2cccnc2)[nH]c1=O` [MLS001165441]: greater than 300 µM.
The compound `COc1cccc2cc(C(=O)N(C)C)c(=O)oc12` [8-methoxy-N,N-dimethyl-2-oxo-1-benzopyran-3-carboxamide] had an EC50 greater than 300 µM.
Under `O=C(/[O+]=N/[CH-]c1ccc(N2CCCCC2)c([N+](=O)[O-])c1)c1ccc(Cl)cc1Cl` [MLS000326612] stands greater than 300 µM; under `CC(C)CCNc1nc(N)c([N+](=O)[O-])c(NCCO)n1` [2-[[6-amino-2-(3-methylbutylamino)-5-nitropyrimidin-4-yl]amino]ethanol], 6.82 µM; under `COc1ccc(Cl)cc1-c1nc(N)nc(NC2CCCCC2)n1` [MLS000698409], greater than 300 µM.
Under `CCCCc1cc(=O)oc2c(CN(C)C)c(O)ccc12` [4-butyl-8-[(dimethylamino)methyl]-7-hydroxy-1-benzopyran-2-one] stands greater than 300 µM; under `Cc1ccnc(NC(=O)c2cccc([N+](=O)[O-])c2C)c1` [2-methyl-N-(4-methylpyridin-2-yl)-3-nitro-benzamide], greater than 300 µM; under `COCCOC(=O)c1c(C)oc2ccc(OC(=O)c3cccs3)cc12` [MLS000111716], greater than 300 µM.
`CCOC(=O)c1sc(NC(=O)CCN2C(=O)c3cccc([N+](=O)[O-])c3C2=O)c(C(=O)OCC)c1C` [3-methyl-5-[[3-(4-nitro-1,3-dioxo-2-isoindolyl)-1-oxopropyl]amino]thiophene-2,4-dicarboxylic acid diethyl ester] showed an EC50 greater than 300 µM.
Next, `c1ccc(CCNCC2COc3ccccc3O2)cc1` (stereo not given): greater than 300 µM.
Under `CCCCc1cc(=O)oc2cc(C)cc(O)c12` stands greater than 300 µM; under `COc1ccc(Nc2nc(N)nc(CSc3nnc(C)s3)n2)cc1` [MLS000527270], 82 µM.
Compound `CCCN(CCC)Cc1c(C(=O)NN=Cc2cccs2)nnn1-c1nonc1N` displayed an EC50 of 60 µM.
Next, `CCn1c(SCC(=O)NNC(=O)c2ccc(C)cc2)nnc1C1CC1` [N'-[2-[(5-cyclopropyl-4-ethyl-1,2,4-triazol-3-yl)sulfanyl]acetyl]-4-methylbenzohydrazide]: greater than 300 µM; `O=C(O)c1ccccc1C(=O)Nc1nccs1` [2-(1,3-thiazol-2-ylcarbamoyl)benzoic acid]: greater than 300 µM.
Next, `CCOC(=O)c1c(C)[nH]c(C)c1S(=O)(=O)N(C)CC(=O)Nc1ccccc1` [SMR000630545]: greater than 300 µM; `Cc1ccc(Nc2nc(N)c([N+](=O)[O-])c(NCCO)n2)cc1C` [SMR000436043]: 14.6 µM.
Under `Cc1ccc(C(=O)O/N=C(\N)c2ccccn2)c(Cl)c1` [MLS001206211] stands 26.2 µM; under `O=Cc1ccc(Oc2nc(Cl)ncc2F)cc1` [4-[(2-chloro-5-fluoro-4-pyrimidinyl)oxy]benzaldehyde], greater than 300 µM; under `Nc1nc(NCC2CCCO2)nc(Nc2cccc(F)c2)c1[N+](=O)[O-]` (stereo not given) [N4-(3-fluorophenyl)-5-nitro-N2-(2-oxolanylmethyl)pyrimidine-2,4,6-triamine], 7.14 µM.
Turning to `COc1ccc(CC(=O)OCC(=O)Nc2ccc(Cl)cn2)cc1` [MLS000566076], the EC50 worked out at 107 µM.
Next, `COc1ccc(CN(CC(=O)NCCc2ccccc2)C(=O)CCC(=O)Nc2ccccn2)cc1` [N'-[(4-methoxyphenyl)methyl]-N'-[2-oxo-2-(2-phenylethylamino)ethyl]-N-pyridin-2-ylbutanediamide]: greater than 300 µM; `COc1cccc(/C=C2/Sc3ccc(C(=O)NCCCN4CCCC4)cc3NC2=O)c1`: 2.82 µM; `COc1ccc(-n2nc3c(N)n[nH]c3cc2=O)cc1` [SMR000337768]: 14.1 µM.
